Measurements from patent US9795140B2, “Molecules having pesticidal utility, and intermediates, compositions, and processes, related thereto” (priority 2015, dated 2017).

Experiments:
Type in all cases: in vivo
[1] = test system: Yellow Fever Mosquito (Aedes aegypti, AEDSAE); assay: Bioassay on Yellow Fever Mosquito (YFM) larvae, 96-well plate; settings: about 1 day-old larvae, room temperature, 3 days, scored on mortality
Description: Certain molecules disclosed in this document were tested against YFM using procedures described in the following paragraph. In the reporting of the results, the “GPA & YFM Rating Table” was used (See Table Section).
Master plates containing 400 μg of a molecule dissolved in 100 μL of dimethyl sulfoxide (DMSO) (equivalent to a 4000 ppm solution) are used. A master plate of assembled molecules contains 15 μL per well. To this plate, 135 μL of a 90:10 water/acetone mixture is added to each well. A robot is programmed to dispense 15 μL aspirations from the master plate into an empty 96-well shallow plate (“daughter” plate). There are 6 reps (“daughter” plates) created per master. The created “daughter” plates are then immediately infested with YFM larvae.
The day before plates are to be treated, mosquito eggs are placed in Millipore water containing liver powder to begin hatching (4 g. into 400 mL). After the “daughter” plates are created using the robot, they are infested with 220 μL of the liver powder/larval mosquito mixture (about 1 day-old larvae). After plates are infested with mosquito larvae, a non-evaporative lid is used to cover the plate to reduce drying. Plates are held at room temperature for 3 days prior to grading. After 3 days, each well is observed and scored based on mortality. The results are indicated in the table entitled “Table ABC: Biological Results” (See Table Section).

[2] = test system: Cabbage Looper (Trichoplusia ni, TRIPNI); assay: Bioassay on Cabbage Looper (CL), 128-well diet tray assay; settings: 168 h, 50 μg/cm^2 on artificial diet, second instar larvae, 25° C., five to seven days, average of eight wells, read-out: CL % Control (or Mortality) rating
Description: (§1) Certain molecules disclosed in this document were tested against BAW and CL using procedures described in the following examples. In the reporting of the results, the “BAW & CL Rating Table” was used (See Table Section).
Bioassays on CL were conducted using a 128-well diet tray assay, one to five second instar CL larvae were placed in each well (3 mL) of the diet tray that had been previously filled with 1 mL of artificial diet to which 50 μg/cm^2 of the test molecule (dissolved in 50 μL of 90:10 acetone-water mixture) had been applied (to each of eight wells) and then allowed to dry. Trays were covered with a clear self-adhesive cover, vented to allow gas exchange, and held at 25° C., 14:10 light-dark for five to seven days. Percent mortality was recorded for the larvae in each well; activity in the eight wells was then averaged. The results are indicated in the table entitled “Table ABC: Biological Results” (See Table Section).

[3] = test system: Beet Armyworm (Spodoptera exigua, LAPHEG); assay: Bioassay on Beet Armyworm (BAW), 128-well diet tray assay; settings: 168 h, 50 μg/cm^2 on artificial diet, second instar larvae, 25° C., five to seven days, average of eight wells, read-out: BAW % Control (or Mortality) rating
Description: as §1
Bioassays on BAW were conducted using a 128-well diet tray assay. One to five second instar BAW larvae were placed in each well (3 mL) of the diet tray that had been previously filled with approximately 1.5 mL of artificial diet to which 50 μg/cm^2 of the test molecule (dissolved in 50 μL of 90:10 acetone-water mixture) had been applied (to each of eight wells) and then allowed to dry. Trays were covered with a clear self-adhesive cover, vented to allow gas exchange, and held at 25° C., 14:10 light-dark for five to seven days. Percent mortality was recorded for the larvae in each well; activity in the eight wells was then averaged. The results are indicated in the table entitled “Table ABC: Biological Results” (See Table Section).

Row | SMILES | YFM % Control (or Mortality) rating [1] | mortality at 50 µg/cm2 [2] [%] | mortality at 50 µg/cm2 [3] [%]
1 | O=C(NCCC(F)(F)C(F)(F)F)c1cc(NC(=O)[C@H]2[C@H](c3cc(Cl)cc(Cl)c3)C2(Cl)Cl)ccc1Cl (relative stereo) [F60, trans-2-Chloro-5-(2,2-dichloro-3-(3,5-dichlorophenyl)cyclopropane-1-carboxamido)-N-(3,3,4,4,4-pentafluorobutyl)benzamide] | D (No activity noticed in this bioassay) | 50 to 100 | 50 to 100
2 | O=C(NCC(F)(F)C(F)(F)C(F)(F)F)c1cc(NC(=O)[C@H]2[C@H](c3cc(Cl)cc(Cl)c3)C2(Cl)Cl)ccc1Cl (relative stereo) [F61, trans-2-Chloro-5-(2,2-dichloro-3-(3,5-dichlorophenyl)cyclopropane-1-carboxamido)-N-(2,2,3,3,4,4,4-heptafluorobutyl)benzamide] | D (No activity noticed in this bioassay) | 50 to 100 | 50 to 100
3 | CCCN(C)C(=O)c1cc(NC(=O)[C@H]2[C@H](c3cc(Cl)cc(Cl)c3)C2(Cl)Cl)ccc1Cl (relative stereo) [F62, trans-2-Chloro-5-(2,2-dichloro-3-(3,5-dichlorophenyl)cyclopropane-1-carboxamido)-N-methyl-N-propylbenzamide] | D (No activity noticed in this bioassay) | 50 to 100 | 50 to 100
4 | CCN(C)C(=O)c1cc(NC(=O)[C@H]2[C@H](c3cc(Cl)cc(Cl)c3)C2(Cl)Cl)ccc1Cl (relative stereo) [F63, trans-2-Chloro-5-(2,2-dichloro-3-(3,5-dichlorophenyl)cyclopropane-1-carboxamido)-N-ethyl-N-methylbenzamide] | D (No activity noticed in this bioassay) | 50 to 100 | 50 to 100
5 | CN(CCC(F)(F)F)C(=O)c1cc(NC(=O)[C@H]2[C@H](c3cc(Cl)cc(Cl)c3)C2(Cl)Cl)ccc1Cl (relative stereo) [F64, trans-2-Chloro-5-(2,2-dichloro-3-(3,5-dichlorophenyl)cyclopropane-1-carboxamido)-N-methyl-N-(3,3,3-trifluoropropyl)benzamide] | D (No activity noticed in this bioassay) | 50 to 100 | 50 to 100
6 | COCCN(C)C(=O)c1cc(NC(=O)[C@H]2[C@H](c3cc(Cl)cc(Cl)c3)C2(Cl)Cl)ccc1Cl (relative stereo) [F67, trans-2-Chloro-5-(2,2-dichloro-3-(3,5-dichlorophenyl)cyclopropane-1-carboxamido)-N-(2-methoxyethyl)-N-methylbenzamide] | D (No activity noticed in this bioassay) | 50 to 100 | 50 to 100
7 | CSCCN(C)C(=O)c1cc(NC(=O)[C@H]2[C@H](c3cc(Cl)cc(Cl)c3)C2(Cl)Cl)ccc1Cl (relative stereo) [F68, trans-2-Chloro-5-(2,2-dichloro-3-(3,5-dichlorophenyl)cyclopropane-1-carboxamido)-N-methyl-N-(2-(methylthio)ethyl)benzamide] | D (No activity noticed in this bioassay) | 50 to 100 | 50 to 100
8 | CN(CC1CC1)C(=O)c1cc(NC(=O)[C@H]2[C@H](c3cc(Cl)cc(Cl)c3)C2(Cl)Cl)ccc1Cl (relative stereo) [F69, trans-2-Chloro-N-(cyclopropylmethyl)-5-(2,2-dichloro-3-(3,5-dichlorophenyl)cyclopropane-1-carboxamido)-N-methylbenzamide] | D (No activity noticed in this bioassay) | 50 to 100 | 50 to 100
9 | O=C(NCC1CC(F)(F)C1)c1cc(NC(=O)[C@H]2[C@H](c3cc(Cl)cc(Cl)c3)C2(Cl)Cl)ccc1Cl (relative stereo) [F70, trans-2-Chloro-5-(2,2-dichloro-3-(3,5-dichlorophenyl)cyclopropane-1-carboxamido)-N-((3,3-difluorocyclobutyl)methyl)benzamide] | D (No activity noticed in this bioassay) | 50 to 100 | 50 to 100
10 | O=C(Nc1ccc(Cl)c(C(=O)N2CCC(F)(F)C2)c1)[C@H]1[C@H](c2cc(Cl)cc(Cl)c2)C1(Cl)Cl (relative stereo) [F71, trans-2,2-Dichloro-N-(4-chloro-3-(3,3-difluoropyrrolidine-1-carbonyl)phenyl)-3-(3,5-dichlorophenyl)cyclopropane-1-carboxamide] | D (No activity noticed in this bioassay) | 50 to 100 | 50 to 100
11 | O=C(NCCCC(F)(F)F)c1cc(NC(=O)[C@H]2[C@H](c3cc(Cl)cc(Cl)c3)C2(Cl)Cl)ccc1Cl (relative stereo) [F72, trans-2-Chloro-5-(2,2-dichloro-3-(3,5-dichlorophenyl)cyclopropane-1-carboxamido)-N-(4,4,4-trifluorobutyl)benzamide] | A (80-100) | 50 to 100 | 50 to 100
12 | CN(CC1CC(F)(F)C1)C(=O)c1cc(NC(=O)[C@H]2[C@H](c3cc(Cl)cc(Cl)c3)C2(Cl)Cl)ccc1Cl (relative stereo) [F73, trans-2-Chloro-5-(2,2-dichloro-3-(3,5-dichlorophenyl)cyclopropane-1-carboxamido)-N-((3,3-difluorocyclobutyl)methyl)-N-methylbenzamide] | A (80-100) | 50 to 100 | 50 to 100
13 | CC(O)CNC(=O)c1cc(NC(=O)[C@H]2[C@H](c3cc(Cl)cc(Cl)c3)C2(Cl)Cl)ccc1Cl (relative stereo) [F78, trans-2-Chloro-5-(2,2-dichloro-3-(3,5-dichlorophenyl)cyclopropane-1-carboxamido)-N-(2-hydroxypropyl)benzamide] | A (80-100) | 50 to 100 | 50 to 100
14 | O=C(NCCN1CCNC1=O)c1cc(NC(=O)[C@H]2[C@H](c3cc(Cl)cc(Cl)c3)C2(Cl)Cl)ccc1Cl (relative stereo) [F79, trans-2-Chloro-5-(2,2-dichloro-3-(3,5-dichlorophenyl)cyclopropane-1-carboxamido)-N-(2-(2-oxoimidazolidin-1-yl)ethyl)benzamide] | A (80-100) | 50 to 100 | 50 to 100
15 | CCCNC(=O)c1cc(NC(=O)[C@H]2[C@H](c3cc(Cl)c(OC)c(Cl)c3)C2(Cl)Cl)ccc1Cl (relative stereo) [F84, trans-2-Chloro-5-(2,2-dichloro-3-(3,5-dichloro-4-methoxyphenyl)cyclopropane-1-carboxamido)-N-propylbenzamide] | D (No activity noticed in this bioassay) | 50 to 100 | 50 to 100
16 | CCNC(=O)c1cc(NC(=O)[C@H]2[C@H](c3cc(Cl)c(OC)c(Cl)c3)C2(Cl)Cl)ccc1Cl (relative stereo) [F85, trans-2-Chloro-5-(2,2-dichloro-3-(3,5-dichloro-4-methoxyphenyl)cyclopropane-1-carboxamido)-N-ethylbenzamide] | B (More than 0-Less than 80) | 50 to 100 | 50 to 100
17 | COc1c(Cl)cc([C@H]2[C@H](C(=O)Nc3ccc(Cl)c(C(=O)NCCF)c3)C2(Cl)Cl)cc1Cl (relative stereo) [F86, trans-2-Chloro-5-(2,2-dichloro-3-(3,5-dichloro-4-methoxyphenyl)cyclopropane-1-carboxamido)-N-(2-fluoroethyl)benzamide] | B (More than 0-Less than 80) | 50 to 100 | 50 to 100
